Experiment in all cases: DTP human tumour cell line panel, 48 h
Test [1] has as its system A498 renal.
The subject of test [2] is A549 NSCLC.
Test [3] has as its system HOP-92 NSCLC.
Test [4] relates to MCF7 breast.
Test [5] relates to NCI-H460 lung.
Test [6] relates to OVCAR-3 ovarian.
In test [7] the test system is SF-268 CNS.
Test [8] has as its system SF-295 CNS.
The test system of test [9] is SNB-19 CNS.
Test [10] has as its system UACC-257 melanoma.

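Method: 48-hour compound exposure of cells in 96-well plates, five concentrations, linear interpolation of endpoints. At the GI50, growth is halved. TGI: total growth inhibition.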 Some results are limits rather than exact numbers.

Take `OCCn1c(-c2ccncc2)c(-c2ccc(F)cc2)c2ncccc21`: the GI50 in [1] is greater than 20.3 µM; in test [2], greater than 25 µM; in [3], 9.5 µM; in test [4] it was greater than 25 µM; in test [5] it was greater than 25 µM; in test [6], greater than 25 µM. Also, the GI50 in test [7], in test [8], in test [9] and in test [10] was greater than 25 µM throughout. For the same compound, the TGI in test [1], in [2], in [3], in [4], in [5] and in test [6] was greater than 25 µM in each case. In addition, the concentration for total growth inhibition (TGI) in test [7], in test [8], in [9] and in test [10] was greater than 25 µM in each case.
With `COc1cccc2c(Nc3ccc(C(=O)NCCN4CCNCC4)cc3)cc(-c3ccccc3)nc12`, the GI50 in test [1] is greater than 100 µM; in [2] it was greater than 100 µM; in [3] it was 95 µM; in test [4], 23.7 µM; in test [5], 35.1 µM; in test [6] it was greater than 100 µM. Further, the GI50 in test [7] is 50.1 µM; in test [8], 33.1 µM; in test [9] it was 53.1 µM; in test [10], greater than 100 µM. Besides, the concentration for total growth inhibition (TGI) in test [1], in test [2], in test [3], in test [4], in [5] and in test [6] was greater than 100 µM each time. The total growth inhibition concentration (TGI) in [7], in test [8], in test [9] and in test [10] was greater than 100 µM each time.
Turning to `c1csc(-c2[nH]nc3c2CCc2ccccc2-3)c1`, the GI50 in test [1] is 14.3 µM; in test [2] it was 13 µM; in test [3], 1.88 µM; in test [4], 0.23 µM; in test [5], 9.12 µM; in [6], 3.35 µM. In addition, the GI50 in test [7] is 16.7 µM; in test [8] it was 16.4 µM; in test [9] it was 13.3 µM; in test [10], 19.8 µM. Moreover, the TGI in test [1] was 32.4 µM; in [2] it was 55.4 µM; in test [3] it was 20.4 µM; in [4], 11.8 µM; in test [5], 34.3 µM; in [6], 19.7 µM. Moreover, the TGI is 55 µM in test [7], 38.7 µM in test [8], greater than 65.9 µM in test [9] and 49.1 µM in test [10].
For `CCc1c[nH]c2ncnc(N3CC[C@](N)(CNC(=O)c4ccc(F)cc4F)C3)c12`, the GI50 in [1] is 0.245 µM; in [2], 7.36 µM; in [3] it was 0.23 µM; in test [4], 0.716 µM; in test [5], 1.78 µM; in test [6], 11.4 µM. The GI50 in [7] is 33.3 µM; in [8] it was 1 µM; in test [9] it was 2.04 µM; in test [10], 9.22 µM. For the same compound, the concentration for total growth inhibition (TGI) in [1] is 1.73 µM; in test [2], greater than 95.5 µM; in [3], 7.57 µM; in test [4] it was greater than 100 µM; in test [5] it was greater than 100 µM; in test [6] it was greater than 100 µM. Further, the total growth inhibition concentration (TGI) in [7], in test [8], in test [9] and in test [10] was greater than 100 µM each time.
Take `CCNc1nc(-c2ccc(Cl)c(OC)c2)c(-c2ccnc(NCCNS(=O)(=O)c3ccc(Cl)cc3)n2)s1`: the GI50 was 1.5 µM in [1]; 3.57 µM in test [2]; 2.64 µM in test [3]; 3.03 µM in test [4]; 3.2 µM in [5]; 2.45 µM in test [6]. The GI50 was 4.03 µM in [7], 1.89 µM in test [8], 4.59 µM in test [9] and 3.44 µM in [10]. Moreover, the TGI in test [1] was 6.52 µM; in test [2], 53.6 µM; in test [3], 9.58 µM; in test [4], greater than 100 µM; in [5], greater than 100 µM; in [6] it was 5.27 µM. The TGI was greater than 100 µM in test [7], 3.83 µM in test [8], greater than 100 µM in [9] and 49.4 µM in test [10].
For `Cc1cccc(Cc2cnc(NC(=O)CCCOc3ccc(Cl)cc3)s2)c1`, the GI50 in [1] was 1.36 µM; in [2], 3.94 µM; in test [3], 34.3 µM; in test [4], 3.16 µM; in [5], 3.32 µM; in [6] it was 3.4 µM. Also, the GI50 is greater than 100 µM in test [7], 3.89 µM in test [8], greater than 100 µM in [9] and 7.41 µM in test [10]. Besides, the total growth inhibition concentration (TGI) in test [1] is 6.25 µM; in test [2], greater than 100 µM; in [3], greater than 100 µM; in test [4], greater than 100 µM; in [5] it was greater than 100 µM; in [6] it was greater than 100 µM. The TGI in test [7], in [8], in test [9] and in test [10] was greater than 100 µM each time.

Source of the values: PubChem BioAssay (NCI).
